Data set [1] concerns HepG2-GFP human hepatocellular carcinoma. Kind of data set: Orthotopic mouse model of human liver cancer, tumor burden. Conditions: 30mg/kg, Qdx35, Gavages. In kind it is in vivo, athymic nude mice. How it is done:
Female athymic nude mice (6 weeks of age) were used in this study. The animals were purchased from Beijing HFK Bioscience, Co., Ltd and maintained in a High Efficiency Particulate Air Filter (HEPA) filtered environment with cages, food, and bedding sterilized by irradiation or autoclaving. A total of 32 nude mice were used for the study. HepG2-GFP human hepatocellular carcinoma cells (AntiCancer, Inc., San Diego, CA) were incubated with RPMI-1640 (Gibco-BRL, Life Technologies, Inc.), which contained 10% FBS. Cells were grown in a CO2 Water Jacketed Incubator (Forma Scientific) maintaining 37°C and a 5% CO2/95% air atmosphere. Cell viability was determined by trypan blue exclusion analysis. Five female athymic nude mice were injected subcutaneously with a single dose of 5 x 10^6 HepG2-GFP cells. Tumors were harvested when their size reached 1cm^3 and the tumor tissues were then cut into small fragments of 1mm^3. Forty female nude mice were implanted orthotopically with a single piece of tumor fragment, which was derived from a subcutaneous tumor model of HepG2-GFP human hepatocellular carcinoma. The tumor tissue was orthotopically implanted in the right lobe of the liver in each mouse by SOI (Surgical Orthotopic Implantation). Briefly, an upper abdominal incision of 1cm was made under anesthesia. Right lobe of the liver was exposed and a part of the liver surface was injured mechanically by scissors. Then a piece of tumor fragment was fixed within the liver tissue, the liver was returned to the peritoneal cavity and the abdominal wall finally closed. Mice were kept in laminar-flow cabinets under specific pathogen-free-conditions.
Treatment was started three days after tumor implantation when the implanted tumors reached an average size of around 1 mm^2. The 32 tumor-bearing mice were randomly divided into four experimental groups of 8 mice each. Each cage was clearly marked for its group with four mice per cage. […] Table. Groups and treatment protocol
During the period of the study, all of the experimental mice were checked daily for mortality or signs of morbidity. […] The body weights of the mice were measured twice weekly during the study period. Images of tumor growth and progression were acquired twice a week during the period of the study with the FluorVivo imaging system, Model 300/Mag (INDEC, CA, USA). […] Livers were exposed for imaging, after which the tumors were removed and weighted with an electronic balance (Sartorius BS 124 S, Germany). Tumor tissues were kept in formalin for further analysis. Comparisons of body weights and tumor burdens in different groups were analyzed using the Student's t-test with an α = 0.05 (two-sided). After intravenously injection of the test agents, the mice had no lying, no autonomous activity reduction. The experimental animals were generally in good condition. Table. Comparison of mean mice body weight at the end of the study
The progressions of orthotopic HepG2-GFP hepatocellular carcinoma in different groups were monitored by real time imaging. Images were acquired twice a week. Typical tumor images at the end of the study in each group and tumor growth curves derived from the signals of tumor fluorescence, which were analyzed using the Power Station software (INDEC Biosystems, CA, USA), are shown in figure 6 and figure 7, respectively Table. Average tumor size in each group (mm2)

Data set [2] in a line: Body weight and toxicity in the orthotopic liver cancer mouse model. To be noted: mouse, in vivo. In kind it is in vivo, athymic nude mice.
Data set [3] concerns A375 melanoma human tumor xenograft. Kind of data set: In vivo human tumor xenograft model, antitumor activity. More on the design: species or system nude mice. Conditions: 2.5mpk,qdx5x2,ip. The text has this: Specific pathogen-free homozygous female nude mice (nu/nu, Charles River Laboratories) were used. Mice were given food and water ad libitum and housed in microisolator cages. Four to six week old animals were identified by microchips (Locus Technology, Manchester, MD, USA) at the time of the experiments. All animal studies were approved by the Institutional Animal Care and Use Committee at Threshold Pharmaceuticals, Inc.
All cell lines were from the American Type Culture Collection (ATCC, Rockville, MD, USA).
Cells were mixed with Matrigel (30% in H460) and 0.2 ml per mouse were subcutaneously implanted to the flank area of the animals. When tumor size reached 100-150 mm^3, mice were randomized into experimental or vehicle groups with 10 mice/group and treatment was started (Day 1). The tested compounds were formulated in 5% DMSO in D5W. All compounds were given by IP, QDx5/wk (5 days on, 2 days off) as one cycle, for a total of 2 cycles. Tumor growth and body weight were measured twice a week. Tumor volume was calculated as (length x width^2)/2. Drug efficacy was assessed as Tumor Growth Inhibition (TGI) and Tumor Growth Delay (TGD). TGI was defined as (1-ΔT/ΔC) x 100, where ΔT/ΔC presented the ratio of the change in mean (or median, if variation within the group was relatively large) tumor volume of the treated group and of the control group. TGD was calculated as the extra days for the treated tumor to reach 500mm^3 as compared to the control group. Animals were culled when individual tumor size reached over 2000mm^3 or mean tumor volume exceeded 1000mm^3 in the group. Data are expressed as the mean ± SEM. One-way analysis of variance with Dunnett post comparison test (GraphPad Prism 4) or two-tailed student's t-test were used for analysis. A P level < 0.05 was considered statistically significant.
This study employed an A375 melanoma human tumor xenograft model and the compounds provided herein were compared to thiotepa and the approved anti melanoma drug, Abraxane. […] Mpk refers to mg/kg.
Background: Xenograft models place foreign cells or tissue in a host animal.

Regarding `CNC(=O)c1cc(Oc2ccc(NC(=O)Nc3ccc(Cl)c(C(F)(F)F)c3)cc2)ccn1` [Sorafenib, reference compound], in data set [1], the “Tumor weight (g) (mean ± sd)” value came to 0.0637 ± 0.0389 g. The “Tumor area (mm^2) (mean ± sd)” value in data set [1] (fluorescence imaging) was found to be 8.2 ± 5.3 mm^2. The “tumor inhibition rate IR(%)” value in data set [1] (from final average tumor weights) is reported as 58.7%. The “toxicity to the experimental mice” value in data set [2] was “a certain degree of toxicity”.
The term TGI denotes the reduction of tumour growth relative to the control group. Lower therefore signals a weaker effect on the tumour. Consider `S=P(N1CC1)(N1CC1)N1CC1` [Thio-TEPA, thiotepa], for which, in data set [3], the “Days to 500 mm^3” value came to 18 days; the “Days to 1000 mm^3” value stood at 27 days; the “TGD500, Days (vs. vehicle)” value was determined as 3 days; the “TGD1000, Days (vs. vehicle)” value is 2 days. In addition, the TGI in data set [3] amounted to 16.6%.

(Values after EP3390415B1, “(R)- AND (S)-1-(3-(3-N,N-DIMETHYLAMINOCARBONYL)PHENOXYL-4-NITROPHENYL)-1-ETHYL-N,N'-BIS (ETHYLENE)PHOSPHORAMIDATE, COMPOSITIONS AND METHODS FOR THEIR USE AND PREPARATION” (OBI PHARMA, INC., priority 2015, dated 2017).)
